In one assay the target is T1, THIK-1 I139A (Homo sapiens, UniProt Q9HB14, I139A).
T1 construct: expressed in transfected cells; host or cells: Xenopus oocytes (mRNA injection)
T1 sequence (Q9HB14 1-408 I139A): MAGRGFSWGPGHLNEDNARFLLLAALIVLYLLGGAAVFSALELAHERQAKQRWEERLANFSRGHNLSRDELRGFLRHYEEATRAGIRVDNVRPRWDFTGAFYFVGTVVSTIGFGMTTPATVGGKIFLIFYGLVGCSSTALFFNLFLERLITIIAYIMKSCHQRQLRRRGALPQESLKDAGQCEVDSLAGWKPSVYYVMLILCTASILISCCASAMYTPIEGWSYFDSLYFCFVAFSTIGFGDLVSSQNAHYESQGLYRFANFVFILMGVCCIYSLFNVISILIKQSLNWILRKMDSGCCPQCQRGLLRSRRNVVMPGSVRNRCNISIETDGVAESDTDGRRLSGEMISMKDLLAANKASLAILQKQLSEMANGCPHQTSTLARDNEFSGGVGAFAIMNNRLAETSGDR
Briefly: Inside-out excised patch recordings, oocytes, THIK-1 I139A mutant. The assay is classed as cell-based. The following applies: for τ of 1 mM TPenA block / τ of 1 mM TPenA release: I139A; for Normalized currents: THIK-1 I139A. The source says: Human K2P13.1 THIK-1 (GenBank accession number: NM_022054) and human K2P12.1 THIK-2 (NM_022055.1) were used in this study. For functional expression studies, the respective K^+ channel subtype coding sequences were subcloned into the oocyte expression vector pSGEM or the dual-purpose expression vector pFAW[41] and verified by sequencing. All mutant channels were obtained by site-directed mutagenesis and verified by sequencing. To increase surface expression and macroscopic currents, measurements of THIK-2 channels used a mutated ER retention motif, (R11A R12A R14A R15A R16A; THIK-2*)[20]. Vector DNA was linearized with NheI or MluI, and mRNA was synthesized in vitro using the SP6 or T7 AmpliCap Max High Yield Message Maker Kit (Cellscript, USA) or HiScribe T7 ARCA mRNA Kit (New England Biolabs).
Two-electrode voltage–clamp (TEVC) studies were performed in Xenopus oocytes. All animal use conformed to the Guide for the Care and Use of Laboratory Animals (NIH Publication 85–23), and all experiments using Xenopus toads were approved by the local ethics panels. Oocytes were stored at 17 °C in ND96 recording solution composed of (in mM): 96 NaCl, 2 KCl, 1.8 CaCl2, 1 MgCl2, 5 HEPES (pH 7.5 adjusted with NaOH and HCl), supplemented with Na-pyruvate (275 mg L^–1), theophylline (90 mg L^–1) and gentamicin (50 mg L^–1). Oocytes were injected with 1 ng mRNA for WT or mutant channels, and were incubated for 24–48 h at 17 °C. Two-electrode voltage clamp recordings were then performed as previously described[42],[43]. For macroscopic patch–clamp measurements, oocytes were obtained as described above incubated at 17 °C in a solution containing (mM): 54 NaCl, 30 KCl, 2.4 NaHCO3, 0.82 MgSO4 ×7 H2O, 0.41 CaCl2, 0.33 Ca(NO3)2 ×4 H2O and 7.5 TRIS (pH 7.4 adjusted with NaOH and HCl) for 1–4 days before use. Excised patch recordings in inside-out configuration conditions were performed at room temperature. Patch pipettes were made from thick-walled borosilicate glass GB 200TF-8P (Science Products), had resistances of 0.2–0.5 MΩ (tip diameter, 10–25 µm) and filled with a pipette solution (in mM): 120 KCl, 10 HEPES and 3.6 CaCl2 (pH 7.4 adjusted with KOH and HCl). Intracellular bath solutions and compounds were applied to the cytoplasmic side of excised patches for the various K^+ channels through a gravity flow multi-barrel pipette system. The intracellular solution had the following composition (in mM): 120 KCl, 10 HEPES, 2 EGTA and 1 pyrophosphate (pH adjusted with KOH and HCl). Currents were recorded with an EPC10 amplifier (HEKA Electronics) and sampled at 10 kHz or higher, with filtering set to 3 kHz (–3 dB) or higher, as appropriate for sampling rate. For measurements of GPCR activation, whole-cell currents were recorded for THIK-1 in transiently transfected HEK-293 cells. Cells were stimulated by a ramp protocol between −100 and +60 mV (holding potential, −80 mV). The pipette solution was composed of (in mM): 140 KCl, 2 MgCl2, 1 CaCl2, 2.5 EGTA and 10 HEPES (pH 7.3 adjusted with KOH and HCl). The extracellular bath solution had the following composition (in mM): 135 NaCl, 5 KCl, 2 MgCl2, 2 CaCl2, 10 glucose and 10 HEPES pH (pH 7.3 adjusted with NaOH and HCl). Oxotremorine M (Oxo-M) was added to extracellular bath solution to obtain the final concentration. Single-channel currents were recorded with an Axopatch 200B amplifier through a Digidata 1440A digitizer (Molecular Devices). Data were filtered at 2 kHz and recorded at a 200-kHz sampling rate with the program Clampex (Molecular Devices). Pipette solution and bath solution for cell-attached recordings contained (in mM): 140 KCl, 2 MgCl2, 1 CaCl2 and 10 HEPES (pH 7.4 adjusted with KOH and HCl). For inside-out recordings, the bath solution contained (in mM): 140 KCl, 2 MgCl2, 1 CaCl2 and 10 HEPES (pH 7.2 adjusted with KOH and HCl). All experiments were conducted at room temperature. […]

The target of the next assay is T2, THIK-1 S136A (Homo sapiens, UniProt Q9HB14, S136A).
T2 construct: expressed in transfected cells; host or cells: Xenopus oocytes (mRNA injection)
Briefly: Inside-out excised patch recordings, oocytes, THIK-1 S136A mutant. It counts as cell-based. The following applies: read-out: TPenA IC50. The source says:
Supplement 41594_2025_1497_MOESM2_ESM.xlsx, sheet "ExtData_Fig_S2c" | column: Normalized currents

SMILES strings stand for the structures. Several values for one entry are separate records, joined by “and”; a condition that tells them apart may be missing. Equal entries are not always repeated. Where two headings read alike, the source gives them in different places.

For orientation: IC50 means the concentration that inhibits the measured activity by half.

T2 sequence (Q9HB14 whole entry S136A): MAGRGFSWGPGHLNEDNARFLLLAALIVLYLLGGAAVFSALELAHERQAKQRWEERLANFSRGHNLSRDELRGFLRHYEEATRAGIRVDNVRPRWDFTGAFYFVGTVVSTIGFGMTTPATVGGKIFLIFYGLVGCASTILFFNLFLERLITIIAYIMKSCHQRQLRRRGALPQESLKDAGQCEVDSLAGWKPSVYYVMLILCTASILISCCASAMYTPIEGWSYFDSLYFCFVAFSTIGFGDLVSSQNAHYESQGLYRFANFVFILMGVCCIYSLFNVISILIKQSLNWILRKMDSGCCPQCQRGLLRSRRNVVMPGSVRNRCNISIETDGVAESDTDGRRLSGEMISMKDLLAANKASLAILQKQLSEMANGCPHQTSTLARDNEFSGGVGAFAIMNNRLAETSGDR

On to `CCCCC[N+](CCCCC)(CCCCC)CCCCC` [TPenA, tetrapentylammonium], for which the “τ of 1 mM TPenA block” value on THIK-1 I139A (individual recordings) is 0.150 s and 0.087 s and 0.338 s and 0.121 s and 0.235 s and 0.061 s and 0.088 s and 0.065 s and 0.063 s and 0.057 s and 0.086 s and 0.068 s and 0.117 s and 0.145 s and 0.215 s and 0.129 s and 0.101 s and 0.147 s and 0.113 s and 0.270 s and 0.151 s and 0.198 s and 0.133 s; on THIK-1 I139A (mean) it was 0.13 s. Further, the “τ of 1 mM TPenA release” value on THIK-1 I139A (individual recordings) was 1.320 s and 0.719 s and 0.852 s and 0.882 s and 0.634 s and 0.828 s and 0.460 s and 0.897 s and 0.583 s and 1.759 s and 0.311 s and 0.642 s and 0.558 s and 0.489 s and 0.435 s and 0.476 s and 0.409 s and 0.565 s and 0.635 s and 0.683 s and 0.647 s and 0.518 s and 0.501 s; on THIK-1 I139A (mean), 0.68 s. Further, the Normalized currents at THIK-1 I139A (TPenA 0.1 µM) is listed as 1.00; on THIK-1 I139A (TPenA 1 µM) it was 0.93; on THIK-1 I139A (TPenA 4 µM), 0.83; at THIK-1 I139A (TPenA 15.6 µM), 0.67; at THIK-1 I139A (TPenA 62.5 µM) it was 0.44; on THIK-1 I139A (TPenA 250 µM), 0.22. In addition, the Normalized currents is reported as 0.11 at THIK-1 I139A (TPenA 1000 µM) and 0.08 on THIK-1 I139A (TPenA 4000 µM). The 50% inhibitory concentration (IC50) at THIK-1 S136A (individual recordings) was 102 µM and 173 µM and 396 µM and 375 µM and 349 µM and 120 µM and 192 µM; at THIK-1 S136A (mean), 244 µM.
